Results published in patent US4976874A, “Control of biofouling in aqueous systems by non-polymeric quaternary ammonium polyhalides” (Great Lakes Chemical Corporation, priority 1989, dated 1990).
Read-outs that look alike come from different tables or passages of the source.

Tests used:
[1] = system: Pseudomonas aeruginosa; experiment: % Kill of Pseudomonas aeruginosa; assay type: cell-based; settings: read-out: Percent Kill Pseudomonas aeruginosa; for killing at 0.23 µg/mL: 0.23 ppm free bromine; for killing at 0.34 µg/mL: 0.34 ppm free bromine; for killing at 0.2 µg/mL: 0.20 ppm free bromine; for killing at 0.25 µg/mL: 0.25 ppm free bromine
Description: Quaternary ammonium polyhalides and surfactant mixtures thereof have biocidal properties in aqueous systems where oxidizing biocides are compatible; that is, in aqueous systems having a low halogen demand.
The data in Tables 3-5 indicate that the combination of a water soluble liquid quaternary ammonium polyhalide and a surfactant provides an enhanced efficacy over the liquid quaternary ammonium polyhalide alone. This may be a result of the surface active effect on exopolysaccharides and/or biological membranes.

[2] = Japanese Patent Publication No. 49/14,411; cited from earlier work
[3] = Japanese Patent Publication No. 49/14,411; cited from earlier work; remark: listed apart in the source

CCCCCCCC[N+](C)(C)CCCCCCCC [Compound 2, N-N-Dimethyl-N,N-dioctylammonium dibromochloride]
killing at 0.23 µg/mL ([1]; 1 min, 1 min): 82% | killing at 0.23 µg/mL ([1]; 0.05 h, 3 min): 100% | killing at 0.23 µg/mL ([1]; 5 min, 5 min): 100% | killing at 0.23 µg/mL ([1]; 10 min, 10 min): 100%

COCCOCC[N+](C)(CCOCCOC)CCOCCOC [Compound 3, N-Methyl-N,N,N-tris(3,6-dioxaheptyl)ammonium diobromoiodide]
killing at 0.34 µg/mL ([1]; 1 min, 1 min): 98.6% | killing at 0.34 µg/mL ([1]; 0.05 h, 3 min): 100% | killing at 0.34 µg/mL ([1]; 5 min, 5 min): 100% | killing at 0.34 µg/mL ([1]; 10 min, 10 min): 100%

CCCCCCCCN(C)C [Compound 4, N,N-Dimethyl-N-octylamine hydrotribromide]
killing at 0.34 µg/mL ([1]; 1 min, 1 min): 99.9% | killing at 0.34 µg/mL ([1]; 0.05 h, 3 min): 100% | killing at 0.34 µg/mL ([1]; 5 min, 5 min): 100% | killing at 0.34 µg/mL ([1]; 10 min, 10 min): 100%

CC[N+](C)(C)C [Compound 5, N-Ethyl-N,N,N-trimethylammonium tribromide]
killing at 0.34 µg/mL ([1]; 1 min, 1 min): 99.9% | killing at 0.34 µg/mL ([1]; 0.05 h, 3 min): 100% | killing at 0.34 µg/mL ([1]; 5 min, 5 min): 100% | killing at 0.34 µg/mL ([1]; 10 min, 10 min): 100%

CCC[N+](C)(C)CC [Compound 6, N,N-Dimethyl-N-ethyl-N-propylammonium pentabromide]
killing at 0.34 µg/mL ([1]; 1 min, 1 min): 99.6% | killing at 0.34 µg/mL ([1]; 0.05 h, 3 min): 100% | killing at 0.34 µg/mL ([1]; 5 min, 5 min): 100% | killing at 0.34 µg/mL ([1]; 10 min, 10 min): 100%

C[N+](C)(C)CCO [Compound 7, N-(2-Hydroxyethyl)-N,N,N-trimethylammonium tribromide]
killing at 0.2 µg/mL ([1]; 1 min, 1 min): 56.6% | killing at 0.2 µg/mL ([1]; 0.05 h, 3 min): 99.6% | killing at 0.2 µg/mL ([1]; 5 min, 5 min): 100% | killing at 0.2 µg/mL ([1]; 10 min, 10 min): 100%

COCCOCCN(CCOCCOC)CCOCCOC [Compound 8, N,N,.N-tris(3,6-Dioxaheptyl)amine hydrotribromide]
killing at 0.23 µg/mL ([1]; 1 min, 1 min): 99.9% | killing at 0.23 µg/mL ([1]; 0.05 h, 3 min): 100% | killing at 0.23 µg/mL ([1]; 5 min, 5 min): 100% | killing at 0.23 µg/mL ([1]; 10 min, 10 min): 100%

CCC[N+](CCOCCOC)(CCOCCOC)CCOCCOC [Compound 9, N-Propyl-N,N,N-tris(3,6-dioxaheptyl)-ammonium tribromide]
killing at 0.23 µg/mL ([1]; 1 min, 1 min): 21.5% | killing at 0.23 µg/mL ([1]; 0.05 h, 3 min): 82% | killing at 0.23 µg/mL ([1]; 5 min, 5 min): 100% | killing at 0.23 µg/mL ([1]; 10 min, 10 min): 100%

CCCCCCCCCCCCCC[N+](C)(C)Cc1ccccc1 [Compound 11, N-Benzyl-N,N-dimethyl-N-myristyl-ammonium dibromochloride]
killing at 0.34 µg/mL ([1]; 1 min, 1 min): 100% | killing at 0.34 µg/mL ([1]; 0.05 h, 3 min): 100% | killing at 0.34 µg/mL ([1]; 5 min, 5 min): 100% | killing at 0.34 µg/mL ([1]; 10 min, 10 min): 100%

CCOCC[N+](C)(C)C [Compound 12, N-Ethoxyethyl-N,N,N-trimethylammonium tribromide]
killing at 0.34 µg/mL ([1]; 1 min, 1 min): 100% | killing at 0.34 µg/mL ([1]; 0.05 h, 3 min): 100% | killing at 0.34 µg/mL ([1]; 5 min, 5 min): 99.9% | killing at 0.34 µg/mL ([1]; 10 min, 10 min): 100%

CCC[N+](C)(C)CC [Compound 13, N,N-Dimethyl-N-ethyl-N-propylammonium dichlorobromide]
killing at 0.25 µg/mL ([1]; 1 min, 1 min): 100% | killing at 0.25 µg/mL ([1]; 0.05 h, 3 min): 100% | killing at 0.25 µg/mL ([1]; 5 min, 5 min): 100% | killing at 0.25 µg/mL ([1]; 10 min, 10 min): 100%

CC[N+](C)(C)C [Compound 14, N-Ethyl-N,N,N-tri-methylammonium dichlorobromide]
killing at 0.2 µg/mL ([1]; 1 min, 1 min): 100% | killing at 0.2 µg/mL ([1]; 0.05 h, 3 min): 100% | killing at 0.2 µg/mL ([1]; 5 min, 5 min): 100% | killing at 0.2 µg/mL ([1]; 10 min, 10 min): 100%

CCCCCCCCCC[N+](C)(C)CCCCCCCCCC [Compound 15, N,N-Didecyl-N,N-dimethyl-ammonium dibromochloride]
killing at 0.3 µg/mL ([1]; 1 min): 100% | killing at 0.3 µg/mL ([1]; 0.05 h): 100% | killing at 0.3 µg/mL ([1]; 5 min): 100% | killing at 0.3 µg/mL ([1]; 10 min): 100%

CCCCCCCCCCCCCCCC[n+]1ccccc1 [cetylpyridinium tribromide]
biocidal properties [2]: having biocidal properties | water solubility [3]: water insoluble

CCCCCCCCCCCCCCCC[N+](C)(C)C.[Br-] [cetyltrimethylammonium bromide]
biocidal properties [2]: having biocidal properties

CCCCCCCCCCCCCCCC[N+](C)(C)C [cetyltrimethylammonium tribromide]
biocidal properties [2]: having biocidal properties | water solubility [3]: water insoluble
